Reference: the NIST ThermoML archive (doi:10.1021/je800110r)

Settings: Liquid, Vibrating tube method

CCCCCCCCCC [decane]
Settings	mass density [kg/m3]
323.14 K, 29147 kPa	730.4
323.14 K, 29286 kPa	730.6
323.14 K, 29368 kPa	730.6
323.14 K, 29415 kPa	730.5
323.14 K, 29637 kPa	730.8
323.14 K, 29675 kPa	730.8
323.14 K, 29724 kPa	730.9
323.14 K, 29765 kPa	730.8
323.14 K, 29800 kPa	730.9
323.14 K, 29840 kPa	731
323.14 K, 29872 kPa	731
323.14 K, 29908 kPa	730.9
323.14 K, 29935 kPa	731
323.14 K, 29962 kPa	730.9
323.14 K, 29999 kPa	731.1
323.14 K, 30026 kPa	731
323.14 K, 30054 kPa	731.1
323.14 K, 30082 kPa	731.1
323.14 K, 30114 kPa	731.1
323.14 K, 30147 kPa	731.1
323.14 K, 30180 kPa	731.2
323.14 K, 30217 kPa	731.1
323.14 K, 30240 kPa	731.2
323.14 K, 30273 kPa	731.2
323.14 K, 30306 kPa	731.2
323.14 K, 30353 kPa	731.3
323.14 K, 30381 kPa	731.3
323.14 K, 30409 kPa	731.3
323.14 K, 30447 kPa	731.3
323.14 K, 30475 kPa	731.3
323.14 K, 30513 kPa	731.3
323.14 K, 30547 kPa	731.4
323.14 K, 30586 kPa	731.4
323.14 K, 30624 kPa	731.4
323.14 K, 30652 kPa	731.6
323.14 K, 30686 kPa	731.6
323.14 K, 30720 kPa	731.5
323.14 K, 30753 kPa	731.7
323.14 K, 30787 kPa	731.5
323.14 K, 30816 kPa	731.5
323.14 K, 30851 kPa	731.7
323.14 K, 30890 kPa	731.5
323.14 K, 30919 kPa	731.6
323.14 K, 30964 kPa	731.6
323.14 K, 30993 kPa	731.6
323.14 K, 31028 kPa	731.6
323.14 K, 31068 kPa	731.8
323.14 K, 31097 kPa	731.8
323.14 K, 31257 kPa	731.9
323.14 K, 31307 kPa	732
323.14 K, 31343 kPa	731.9
323.14 K, 31374 kPa	732
323.14 K, 31421 kPa	732.1
323.14 K, 31463 kPa	732
323.14 K, 31495 kPa	732.1
323.14 K, 31537 kPa	732.1
323.14 K, 31569 kPa	732
323.14 K, 31606 kPa	732.1
323.14 K, 31636 kPa	732.2
323.14 K, 31661 kPa	732.2
323.14 K, 31690 kPa	732.1
323.14 K, 31715 kPa	732.2
323.14 K, 31736 kPa	732.2
323.14 K, 31774 kPa	732.2
323.14 K, 31812 kPa	732.3
323.14 K, 31838 kPa	732.2
323.14 K, 31872 kPa	732.3
323.14 K, 31911 kPa	732.5
323.14 K, 31949 kPa	732.3
323.14 K, 31979 kPa	732.3
323.14 K, 32017 kPa	732.4
323.14 K, 32056 kPa	732.4
323.14 K, 32082 kPa	732.5
323.14 K, 32116 kPa	732.5
323.14 K, 32143 kPa	732.5
323.14 K, 32175 kPa	732.5
323.14 K, 32205 kPa	732.5
323.14 K, 32236 kPa	732.4
323.14 K, 32266 kPa	732.6
323.14 K, 32305 kPa	732.5
323.14 K, 32332 kPa	732.6
323.14 K, 32363 kPa	732.6
323.14 K, 32403 kPa	732.7
323.14 K, 32438 kPa	732.7
323.14 K, 32465 kPa	732.8
323.14 K, 32522 kPa	732.8
323.14 K, 32717 kPa	732.9
323.14 K, 32817 kPa	733
323.14 K, 32841 kPa	733
323.14 K, 32902 kPa	733
323.14 K, 32934 kPa	733.1
323.14 K, 32966 kPa	732.9
323.14 K, 32994 kPa	733.1
323.14 K, 33023 kPa	733
323.14 K, 33048 kPa	733
323.14 K, 33069 kPa	733.1
323.14 K, 33090 kPa	733.2
323.14 K, 33114 kPa	733.2
323.14 K, 33147 kPa	733.2
323.14 K, 33173 kPa	733.2
323.14 K, 33193 kPa	733.3
323.14 K, 33219 kPa	733.3
323.14 K, 33249 kPa	733.2
323.14 K, 33274 kPa	733.3
323.14 K, 33300 kPa	733.3
323.14 K, 33334 kPa	733.3
323.14 K, 33356 kPa	733.2
323.14 K, 33387 kPa	733.4
323.14 K, 33504 kPa	733.4
323.14 K, 33553 kPa	733.5
323.14 K, 33615 kPa	733.5
323.14 K, 33644 kPa	733.5
323.14 K, 33671 kPa	733.6
323.14 K, 33690 kPa	733.5
323.14 K, 33720 kPa	733.5
323.14 K, 33749 kPa	733.6
323.14 K, 33775 kPa	733.6
323.14 K, 33801 kPa	733.6
323.14 K, 33824 kPa	733.6
323.14 K, 33858 kPa	733.7
323.14 K, 33895 kPa	733.7
323.14 K, 33921 kPa	733.8
323.14 K, 33948 kPa	733.7
323.14 K, 33971 kPa	733.8
323.14 K, 34266 kPa	733.9
323.14 K, 34292 kPa	734
323.14 K, 34329 kPa	733.9
323.14 K, 34363 kPa	733.9
323.15 K, 688 kPa	707.4
323.15 K, 762 kPa	707.5
323.15 K, 781 kPa	707.5
323.15 K, 802 kPa	707.6
323.15 K, 828 kPa	707.5
323.15 K, 851 kPa	707.6
323.15 K, 875 kPa	707.7
323.15 K, 894 kPa	707.6
323.15 K, 924 kPa	707.7
